Like-named read-outs stand apart in the source and are kept apart here. Ends that are not written are not given here.
Experiments:
S. aureus ATCC 25923 [1] = assay type: cell-based, Staphylococcus aureus; details: ATCC 25923, 18 h
Procedure: (§1) Reference bacterial strains, including Escherichia coli BW25113, Escherichia coli ATCC 25922, Klebsiella pneumoniae ATCC 700603, Acinetobacter baumannii ATCC 19606, Enterobacter cloacae ATCC 13047, Pseudomonas aeruginosa ATCC 27853, Staphylococcus aureus ATCC 25923, and Enterococcus faecium ATCC 19434, were obtained from the American Type Culture Collection (ATCC) in Manassas, VA, USA. Strains were stored at −80 °C in glycerol stocks until use. For all experiments, cultures were grown in sterile MHB (Difco Inc., Becton Dickinson, Sparks, MD, USA). Overnight cultures were incubated at 37 °C for approximately 18 h under shacking (140 rpm, then diluted 1:30 in fresh MHB and again shaken at 140 rpm for ~2 h to reach the mid-log phase (OD ~0.3 at 600 nm). The bacterial cultures were then diluted to the desired concentration for experiments. E. coli BW25113 ΔsbmA (Keio collection) was grown in MHB with the addition of 50 μg/mL kanamycin (Sigma, Milan, Italy).
(§2) Antimicrobial activity was assessed using the Minimum Inhibitory Concentration (MIC) assay, following CLSI guidelines. Briefly, peptides were serially diluted in MHB across a 96-well round-bottom plate (Sarstedt, Milan, Italy), starting with 50 μL in the first well. A mid-log bacterial culture was diluted to 5 × 10^5 CFU/mL, and 50 μL of this suspension was added to each well (except the MHB sterility control wells). […] MIC values were confirmed by at least three independent experiments (n ≥ 3).

S. aureus ATCC 25923 [2] = assay type: cell-based, Staphylococcus aureus
Procedure: as §1
(§3) The Minimal Bactericidal Concentration (MBC) was determined by plating 25 μL from clear MIC wells onto MH-agar Petri dishes (Difco Inc., Becton Dickinson, Sparks, MD, USA), followed by overnight incubation at 37 °C. The MBC was the lowest compound concentration, reducing bacterial viability by ≥99.9%. Results were based on at least three independent experiments (n ≥ 3).

[3] = system: K. pneumoniae ATCC 700603; assay type: cell-based, Klebsiella pneumoniae; details: ATCC 700603, 18 h
Procedure: as §1, §2

E. cloacae ATCC 13047 [4] = assay type: cell-based, Enterobacter cloacae
Procedure: as §1, §3

P. aeruginosa ATCC 27853 [5] = assay type: cell-based, Pseudomonas aeruginosa
Procedure: as §1, §2

P. aeruginosa ATCC 27853 [6] = assay type: cell-based, Pseudomonas aeruginosa; remark: listed apart in the source
Procedure: as §1, §3

A. baumannii ATCC 19606 [7] = assay type: cell-based, Acinetobacter baumannii; details: ATCC 19606, 18 h
Procedure: as §1, §2

E. cloacae ATCC 13047 [8] = assay type: cell-based, Enterobacter cloacae; remark: listed apart in the source
Procedure: as §1, §2

E. coli ATCC 25922 [9] = assay type: cell-based, Escherichia coli
Procedure: as §1, §2

E. coli BW 25113 [10] = assay type: cell-based, Escherichia coli; details: full MHB, 18 h at 37 °C, mode of at least three independent experiments
Procedure: as §1, §2

E. coli BW 25113 ΔsbmA [11] = assay type: cell-based, Escherichia coli; details: full MHB, 18 h at 37 °C, mode of at least three independent experiments
Procedure: as §1, §2

A. baumannii ATCC 19606 [12] = assay type: cell-based, Acinetobacter baumannii
Procedure: as §1, §3

E. coli BW 25113 [13] = assay type: cell-based, Escherichia coli; details: ≥99.9% reduction of viability, after 18 h at 37 °C, mode of at least three independent experiments
Procedure: as §1, §3

[14] = system: K. pneumoniae ATCC 700603; assay type: cell-based, Klebsiella pneumoniae
Procedure: as §1, §3

E. faecium ATCC 19434 [15] = assay type: cell-based, Enterococcus faecium
Procedure: as §1, §3

E. faecium ATCC 19434 [16] = assay type: cell-based, Enterococcus faecium; remark: listed apart in the source
Procedure: as §1, §2

E. coli ATCC 25922 [17] = assay type: cell-based, Escherichia coli; remark: listed apart in the source
Procedure: as §1, §3

E. coli BW 25113 ΔsbmA [18] = assay type: cell-based, Escherichia coli; details: ≥99.9% reduction of viability, after 18 h at 37 °C, mode of at least three independent experiments
Procedure: as §1, §3

A549 cells = assay type: cell-based, human
Procedure: The human lung carcinoma epithelial cell line (A549) was obtained from the American Type Culture Collection (ATCC) (Manassas, VA, USA). A549 cells were cultured in adhesion flasks (EuroClone, Milan, Italy) with complete Dulbecco’s MEM (DMEM, EuroClone, Milan, Italy) containing high glucose, supplemented with 100 U/mL penicillin, […] streptomycin (Sigma, Milan, Italy), 2 mM L-glutamine, and 10% FBS (Life Technologies, Carlsbad, CA, USA). Cells were incubated at 37 °C with 5% CO2.
Cytotoxicity in A549 cells was assessed using the MTT assay. After reaching confluence, cells were counted using a Bürker–Türk chamber and diluted to 2 × 10^5 cells/mL in DMEM. A total of 100 μL of this suspension was seeded into 96-well plates (Sarstedt, Milan, Italy) and incubated overnight at 37 °C with 5% CO2. The next day, the spent medium was replaced with 100 μL of fresh DMEM medium containing peptide or water at the desired concentration. After 20 h of incubation, 25 μL of 1 mg/mL MTT (Sigma, Milan, Italy) in PBS was added, and the plates were incubated for 4 h in the dark. […] After overnight incubation, absorbance was measured at 570 nm using a Nanoquant Infinite-M200Pro plate reader (Tecan Trading AG, Switzerland). The cytotoxicity was calculated by comparing the OD of treated samples with that of untreated controls. […]

Sequence	MIC (S. aureus ATCC 25923 [1]) [µM]	MIC (geometric mean) (S. aureus ATCC 25923 [1])	MBC (S. aureus ATCC 25923 [2]; ATCC 25923, 18 h) [µM]	MBC (geometric mean) (S. aureus ATCC 25923 [2]; ATCC 25923, 18 h)	MBC (E. cloacae ATCC 13047 [4]; ATCC 13047, 18 h) [µM]	MIC (P. aeruginosa ATCC 27853 [5]; ATCC 27853, 18 h) [µM]	MIC (geometric mean) (P. aeruginosa ATCC 27853 [5]; ATCC 27853, 18 h)	MBC (P. aeruginosa ATCC 27853 [6]; ATCC 27853, 18 h) [µM]	MIC (A. baumannii ATCC 19606 [7]) [µM]	MIC (E. coli ATCC 25922 [9]; ATCC 25922, 18 h) [µM]	MIC (geometric mean) (E. coli ATCC 25922 [9]; ATCC 25922, 18 h)	MIC (E. coli BW 25113 [10]) [µM]	MIC (E. coli BW 25113 ΔsbmA [11]) [µM]	MBC (E. coli BW 25113 [13]) [µM]	MBC ([14]; ATCC 700603, 18 h) [µM]	MBC (geometric mean) ([14]; ATCC 700603, 18 h)	MBC (E. faecium ATCC 19434 [15]; ATCC 19434, 18 h) [µM]	MBC (E. coli ATCC 25922 [17]; ATCC 25922, 18 h) [µM]	MBC (geometric mean) (E. coli ATCC 25922 [17]; ATCC 25922, 18 h)	MBC (E. coli BW 25113 ΔsbmA [18]) [µM]	further results
WRIRRRWPRLPRPRWRPLPFPRPGPRP [Peptide B7-B11]	16	20,2 µM	32	40,3 µM	4	16	12,7 µM	16	1	1	0,8 µM	0.5	1	1	8	6,3 µM	>64				MIC [3]: 2 µM; MBC (geometric mean) (P. aeruginosa ATCC 27853 [6]; ATCC 27853, 18 h): 20,2 µM; MIC (geometric mean) (A. baumannii ATCC 19606 [7]): 0,8 µM; MIC (E. cloacae ATCC 13047 [8]; ATCC 13047, 18 h): 2 µM; MBC (A. baumannii ATCC 19606 [12]; ATCC 19606, 18 h): 2 µM
WRIRRRWPRLPRPRWRPLPFPR [Peptide B7-B6]	8	10,1 µM	16		4	8	10,1 µM	16	1	2	1,6 µM	1	2	1			>64	2	1,6 µM		MIC (E. faecium ATCC 19434 [16]; ATCC 19434, 18 h): 8 µM; MIC (geometric mean) (E. faecium ATCC 19434 [16]; ATCC 19434, 18 h): 10,1 µM
WRIRRRWPRLPRPRWRPWFPPRFPIPR [Peptide B7-L11]		5,0 µM			2	8	6,3 µM			2	2,5 µM	1	2	2	4	3,2 µM	16	2	2,5 µM	2	MIC [3]: 2 µM; MIC (geometric mean) [3]: 2,5 µM; MBC (geometric mean) (E. cloacae ATCC 13047 [4]; ATCC 13047, 18 h): 2,5 µM
WRIRRRWPRLPRPRWR [Peptide B7-005]												1	2	2							MIC (E. faecium ATCC 19434 [16]; E. faecium ATCC 19434, full MHB, 18 h at 37 °C, mode of at least three independent experiments): 32 µM; MBC (S. aureus ATCC 25923 [2]; S. aureus ATCC 25923, ≥99.9% reduction of viability, after 18 h at 37 °C, mode of at least three independent experiments): 16 µM; MBC (E. cloacae ATCC 13047 [4]; E. cloacae ATCC 13047, ≥99.9% reduction of viability, after 18 h at 37 °C, mode of at least three independent experiments): 16 µM; MIC (P. aeruginosa ATCC 27853 [5]; P. aeruginosa ATCC 27853, full MHB, 18 h at 37 °C, mode of at least three independent experiments): 16 µM; MBC (P. aeruginosa ATCC 27853 [6]; P. aeruginosa ATCC 27853, ≥99.9% reduction of viability, after 18 h at 37 °C, mode of at least three independent experiments): 16 µM; MIC (E. cloacae ATCC 13047 [8]; E. cloacae ATCC 13047, full MHB, 18 h at 37 °C, mode of at least three independent experiments): 8 µM; MIC (E. coli ATCC 25922 [9]; E. coli ATCC 25922, full MHB, 18 h at 37 °C, mode of at least three independent experiments): 1 µM; MBC (A. baumannii ATCC 19606 [12]; A. baumannii ATCC 19606, ≥99.9% reduction of viability, after 18 h at 37 °C, mode of at least three independent experiments): 4 µM; MBC (E. coli ATCC 25922 [17]; E. coli ATCC 25922, ≥99.9% reduction of viability, after 18 h at 37 °C, mode of at least three independent experiments): 2 µM; MBC ([14]; K. pneumoniae ATCC 700603, ≥99.9% reduction of viability, after 18 h at 37 °C, mode of at least three independent experiments): 4 µM; MBC (E. faecium ATCC 19434 [15]; E. faecium ATCC 19434, ≥99.9% reduction of viability, after 18 h at 37 °C, mode of at least three independent experiments): >64 µM
WRIRRRWPRLPRPRWRPWFPPR [Peptide B7-L6]			8	10,1 µM	2	4	5,0 µM		2	4	3,2 µM		2	1	4	3,2 µM	32	4	3,2 µM	2	MIC [3]: 2 µM; MIC (geometric mean) [3]: 2,5 µM; MBC (geometric mean) (E. cloacae ATCC 13047 [4]; ATCC 13047, 18 h): 2,5 µM; MIC (geometric mean) (A. baumannii ATCC 19606 [7]): 1,6 µM; MBC (A. baumannii ATCC 19606 [12]; ATCC 19606, 18 h): 2 µM; MBC (geometric mean) (A. baumannii ATCC 19606 [12]; ATCC 19606, 18 h): 1,6 µM; MBC (geometric mean) (E. faecium ATCC 19434 [15]; ATCC 19434, 18 h): 40,3 µM
WRIRRRWPRLPRPRWRPRFPPP [Peptide B7-T6]	16		32	25,4 µM	4	8	12,7 µM	32	1	0.5	0,6 µM	1	1	2			>64	0.5	0,6 µM	2	MIC (E. faecium ATCC 19434 [16]; ATCC 19434, 18 h): 16 µM; MBC (geometric mean) (P. aeruginosa ATCC 27853 [6]; ATCC 27853, 18 h): 25,4 µM; MIC (E. cloacae ATCC 13047 [8]; ATCC 13047, 18 h): 2 µM; MIC (geometric mean) (E. cloacae ATCC 13047 [8]; ATCC 13047, 18 h): 2,5 µM
WRIRRRWPRLPRPRWRPRFPPPFPIPR [Peptide B7-T11]	16	12,7 µM	16	20,2 µM		16	12,7 µM	16	1	2	1,3 µM	1	1	1	4	3,2 µM	32	2	1,3 µM	2	MIC (E. faecium ATCC 19434 [16]; ATCC 19434, 18 h): 4 µM; MIC (geometric mean) (E. faecium ATCC 19434 [16]; ATCC 19434, 18 h): 5,0 µM; MBC (geometric mean) (P. aeruginosa ATCC 27853 [6]; ATCC 27853, 18 h): 20,2 µM; MIC (geometric mean) (A. baumannii ATCC 19606 [7]): 1,3 µM; Cytotoxicity toward A549 cells (MTT) at 64 µM (A549 cells): cytotoxic; MBC (A. baumannii ATCC 19606 [12]; ATCC 19606, 18 h): 2 µM; MBC (geometric mean) (A. baumannii ATCC 19606 [12]; ATCC 19606, 18 h): 1,6 µM; MBC (geometric mean) (E. faecium ATCC 19434 [15]; ATCC 19434, 18 h): 40,3 µM
